The subject of this assay is CEM cells HIV-1 protection, formazan growth assay. Nature of the assay: NCI AIDS Antiviral Assay. Particulars: for IC50: measured here: growth of uninfected CEM cells. In a few lines:
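Human CEM cells, uninfected and HIV-1-infected, exposed to five drug concentrations; growth measured by soluble formazan assay and scored as percent protection from infection, with protecting compounds retested.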

Activity calls are given as the source filed them.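 Rule for the calls: active = compounds giving half or more protection of infected cells from virus-caused growth loss, again on retest; inactive = the rest.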 *1 amine or outer side, *2 acyl side, *3 side chain or, on linkers, in order; H or OH if unused. Where a SMILES comes first, the peptide text is derived from it. CO = O=C([*:1])[*:2] Where only a bound is given, the exact number is not on record here.

`O=C1CSC(C(N=Nc2ccc(Cl)cc2)c2nc3ccccc3[nH]2)=N1` (stereo not drawn): the EC50 (commonly the midpoint of the concentration-response curve) is greater than 1.95 µM and the IC50 (as a rule, the point on the concentration scale where inhibition reaches its midpoint) is greater than 1.95 µM.

Regarding `O=C1NC(c2cccs2)N2C(=O)NC(c3cccs3)N12` (stereo not drawn), the EC50 is greater than 200 µM and the IC50 came to 145 µM.

On to `COc1ccccc1C1C(Cl)C(=O)N1NC(=O)Cc1ccccc1` (stereo not drawn), for which the EC50 was greater than 39.8 µM and the IC50 is greater than 39.8 µM.

For `COc1ccc2c(c1)OC(OC)(c1ccc(OC)c(OC)c1)C(O)(OC)C2=O` (stereo not drawn), the EC50 is greater than 200 µM and the IC50 was 11.2 µM.

As to `N#Cc1cccc(C(Br)S(=O)(=O)c2ccccc2)c1` (stereo not drawn), the EC50 was greater than 77.6 µM and the IC50 amounted to 72.4 µM.

Take `NC(=O)Nc1cc(O)ccc1N=Nc1ccc(S(=O)(=O)Nc2ccccn2)cc1`: the EC50 is greater than 87.1 µM and the IC50 was greater than 87.1 µM.

Take `Cc1cc2ccc(=O)oc2c2c1OC(C)(C)[C@H](OC(=O)C13CCC(C)(C(=O)O1)C3(C)C)[C@@H]2OC(=O)C12CCC(C)(C(=O)O1)C2(C)C` (stereo partly drawn): the EC50 was 0.562 µM and the IC50 was 24 µM.

Consider `N#CCC(=O)N/N=C1\C(=O)N(c2ccc(Cl)cc2)C(=O)C(=O)C1c1nc2ccccc2o1` (stereo not drawn), for which the result was inactive.

`O=NCC(=O)OCc1ccccc1`: the EC50 was greater than 200 µM and the IC50 was greater than 200 µM.

In the case of `Brc1ccc2noc(-c3ccccc3)c2c1`, the EC50 is greater than 7.24 µM and the IC50 is greater than 7.24 µM.

As for `Fc1cccc(C2SCc3nc4cc5ccccc5cc4n32)c1` (stereo not drawn), the EC50 is greater than 200 µM and the IC50 is greater than 200 µM.

`OC[C@H]1S[C@H](c2ccccc2)C[C@H]1O`: the EC50 is greater than 200 µM and the IC50 is greater than 200 µM.

For the molecule `CC(=O)OCC(OC(C)=O)C(OC(C)=O)C(OC(C)=O)C(=O)CNn1c(-c2ccccc2)nc2ccc(Br)cc2c1=O` (stereo not drawn), the result was inactive.

For `O=C(C#Cc1ccccc1)N1c2ccccc2CC1c1c[nH]c2ccccc12` (stereo not drawn), the EC50 was greater than 20 µM and the IC50 amounted to 8.32 µM.

Consider `COC(=O)[C@H](Cc1ccccc1)NC(=O)N[C@@H](C)C(=O)N[C@H](C(=O)N[C@H](C=O)Cc1ccccc1)C(C)C` ({OMe-Phe-CO}-Ala-Val-Phe-aldehyde), for which the EC50 was greater than 200 µM and the IC50 turned out to be 4.79 µM.

In the case of `FC(F)(F)C1(C(F)(F)F)OC(Cl)(Cl)C(Cl)(Cl)O1`, the EC50 is greater than 200 µM and the IC50 is greater than 200 µM.

Regarding `CCOC(=O)Cn1c(=O)cc(C)c2ccccc21`, the EC50 is greater than 200 µM and the IC50 is greater than 200 µM.

With `CC1(C)c2ccccc2C(=O)C12CCC(=O)CC2`, the EC50 is greater than 200 µM and the IC50 was greater than 200 µM.

Consider `CCCCSC1CCSc2c1ccc1ccccc21` (stereo not drawn), for which the result was inactive.

Turning to `COc1ccc(C(O)C2c3c(cc4c(c3OC)OCO4)CCN2C)c(CO)c1OC` (stereo not drawn), the result was inactive.

As to `COc1nc2c(nc(N)n2C2OC(CO)C(O)C(O)C2O)c(=O)n1C` (stereo not drawn), the result was inactive.

`CCOC(=O)/C(C#N)=C/c1ccc(-c2ccccc2)cc1`: the EC50 is greater than 25.7 µM and the 50% inhibitory concentration (IC50) is greater than 25.7 µM.

As for `CC[C@]12C=CCN3CCC4(c5cc([C@]6(C(=O)OC)C[C@H]7CN(CCc8c6[nH]c6ccccc86)C[C@@H]6CCCC[C@H]76)c(OC)cc5N(C)C4[C@@](O)(C(=O)OC)C1OC(C)=O)[C@@H]32` (stereo partly drawn), the EC50 was greater than 240 µM and the IC50 came out at 1.32 µM.

With `COC(=O)c1nc(-c2ccc3c(n2)C(=O)C(N)=C(OC)C3=O)c(N)c(-c2ccc(OC)c(OC)c2O)c1C`, the EC50 is greater than 10 µM and the IC50 was determined as 1.66 µM.

As for `C=C(CCCCOCOCCOC)c1ccccc1`, the result was inactive.

On to `CCOC(=O)c1cc2c3c(c(O)c(OC)c2s1)N(C(=O)c1cc2c4c(c(O)c(OC)c2s1)N(C(C)=O)CC4)CC3`, for which the result was inactive.

On to `COc1ccc(N2C(=O)C3c4[nH]c5ccccc5c4C4CCCCCCCCCC4C3C2=O)cc1` (stereo not drawn), for which the EC50 was greater than 200 µM and the 50% inhibitory concentration (IC50) is greater than 200 µM.

Take `CC1CC(C)CC(C)C(O)/C(C#N)=C/C=C/CC(C2CCCC2C(=O)O)OC(=O)CC(O)C(C)C1` (stereo not drawn): the EC50 is greater than 2.57 µM and the IC50 was 0.00575 µM.

For the molecule `Nc1nc(SSc2nc(N)nc3c2ncn3C2CC(O)C(CO)O2)c2ncn(C3CC(O)C(CO)O3)c2n1` (stereo not drawn), the EC50 was greater than 200 µM and the IC50 was 9.33 µM.

On to `c1ccc2c3[nH]c(c2c1)=Nc1ccc(cc1)-c1nc2cc(ccc2o1)N=c1[nH]c(c2ccccc12)=Nc1ccc2nc(oc2c1)-c1ccc(cc1)N=3`, for which the EC50 is greater than 200 µM and the IC50 turned out to be 40.7 µM.

In the case of `COc1ccc2nc3cccc([N+](=O)[O-])c3c(NCCO)c2c1`, the EC50 is greater than 2 µM and the IC50 stood at 0.0309 µM.

Take `C[N+]12CCCCC1CC2` (stereo not drawn): the EC50 is 47.9 µM and the IC50 is 355 µM.

In the case of `c1cc[c]([Sn]([O]c2cccc3cccnc23)([c]2ccccc2)[c]2ccccc2)cc1`, the outcome was inactive.

As to `CN(C)C(=O)OC(Cn1cncn1)(Cn1cncn1)c1ccc(Cl)cc1Cl`, the EC50 is greater than 200 µM and the IC50 is greater than 200 µM.

With `N/N=C1\CC(c2ccccc2)Oc2ccccc21` (stereo not drawn), the EC50 was greater than 200 µM and the IC50 came to 182 µM.

In the case of `O=C1c2ccccc2C(=O)c2sc(Nc3ccc(Cl)c(Cl)c3)nc21`, the EC50 is greater than 19.1 µM and the IC50 was determined as 15.8 µM.

As to `CSc1nc(C)c(CCOC(C)=O)c(N=P(c2ccccc2)(c2ccccc2)c2ccccc2)n1`, the EC50 was greater than 200 µM and the 50% inhibitory concentration (IC50) stood at 28.8 µM.

`CC(C)NCC(O)c1cc(OCc2ccccc2)c(OCc2ccccc2)cc1NC(=O)CCC(=O)O` (stereo not drawn): the EC50 is greater than 200 µM and the IC50 is 1.58 µM.

For `Cn1c(=O)c2sc3c4sc5c(=O)n(C)c6ccccc6c5c4sc3c2c2ccccc21`, the EC50 is greater than 200 µM and the IC50 is greater than 200 µM.

With `COc1ccc(NC2=NCCO2)c2c1CCCC2`, the EC50 was greater than 200 µM and the IC50 turned out to be 77.6 µM.

Take `O=C(CN1CCOCC1)Nc1nc(-c2ccc(Cl)cc2)cs1`: the EC50 is greater than 107 µM and the IC50 was 33.1 µM.

For the molecule `COc1nc2c(c(=O)n1C)N=C(c1ccc(Cl)cc1)CC(c1ccccc1)N2` (stereo not drawn), the EC50 was greater than 200 µM and the IC50 came to 30.9 µM.

For `O=C(O)C1CCC(=O)N1S(=O)(=O)c1ccccc1` (stereo not drawn), the result was inactive.

For the molecule `CC1=CC(O)(c2ccccn2)P(=O)(c2ccccc2)C=C1C` (stereo not drawn), the EC50 was greater than 794 µM and the IC50 was greater than 794 µM.

Turning to `CC(C)(C)OC(=O)CN1CCNCCN(CC(=O)OC(C)(C)C)CCNCC1`, the EC50 is greater than 200 µM and the concentration for half-maximal inhibition (IC50) came out at 13.8 µM.

With `COC(=O)/C(C#N)=C(\Nc1ccccc1)N1CCOCC1`, the EC50 is greater than 200 µM and the IC50 is greater than 200 µM.

For `CC(C)S(=O)(=O)ON1C(=O)c2ccc(N(C)C)cc2C1=O`, the EC50 is greater than 83.2 µM and the IC50 was greater than 83.2 µM.

`S=P1(Oc2ccccc2)OCCO1`: the EC50 was greater than 617 µM and the IC50 was greater than 617 µM.

As to `Oc1c(Br)cc(Br)cc1-c1[nH]c(Br)c(Br)c1Br`, the EC50 was greater than 234 µM and the IC50 came to 1.02 µM.

For the molecule `CC(C)(O)[C@H]1OC2CC[C@@]3(C)C(O)(CC[C@H]4Cc5c([nH]c6ccccc56)C43C)C2=CC1=O` (stereo partly drawn), the EC50 was greater than 200 µM and the IC50 was found to be 13.8 µM.

For the molecule `C[C@]12CCC(=O)C(O)=C1CC[C@@H]1C2CC[C@]2(C)NC(=O)CCC12` (stereo partly drawn), the EC50 is greater than 40.7 µM and the IC50 was greater than 40.7 µM.

Regarding `Sc1ccccc1C1N(Cc2ccc(Cl)cc2)CCCN1Cc1ccc(Cl)cc1`, the EC50 was greater than 100 µM and the IC50 came to 5.75 µM.

For `COc1ccc(N/C=C/C2=[N+](C)c3ccccc3C2(C)C)c(OC)c1`, the EC50 is greater than 479 µM and the IC50 turned out to be 38.9 µM.

As to `COC12OCCN(CCO)C1=CC(=O)C1(C)N=NC(C)C12` (stereo not drawn), the outcome was inactive.

On to `COc1ccc(CCC2NCCc3cc(OC)c(OC)cc32)cc1` (stereo not drawn), for which the EC50 is greater than 692 µM and the IC50 was 102 µM.

As for `CC(=O)N(CC1CCCN(C)C1)C12CC3CC(CC(C3)C1)C2` (stereo not drawn), the EC50 was greater than 117 µM and the IC50 was greater than 117 µM.

Turning to `[Cl][Ni+2][Cl].[NH-]CCN1CC1`, the EC50 is greater than 200 µM and the 50% inhibitory concentration (IC50) came out at 40.7 µM.

`CSCC(COC(C)=O)(CSC)c1ccncc1`: the EC50 was greater than 871 µM and the IC50 came out at 501 µM.

As for `COc1cc(O)c2c(=O)oc3cc(O)cc(C)c3c2c1`, the EC50 was greater than 34.7 µM and the half-inhibitory concentration (IC50) was greater than 34.7 µM.

As to `O=C(NC(=O)C(Cc1ccccc1)c1ccccc1)C(Cc1ccccc1)c1ccccc1` (stereo not drawn), the EC50 is greater than 12 µM and the IC50 is greater than 12 µM.

Regarding `N#Cc1c(C#N)c(-c2cccc([N+](=O)[O-])c2)n(-c2ccccc2)c1N`, the EC50 was greater than 200 µM and the IC50 came out at 141 µM.

`c1ccc(OCc2nnc3n2N=C(c2ccccc2)CS3)cc1`: the result was inactive.

As to `CCCCCC[n+]1noc(N)c1-c1ccc(-c2c(N)on[n+]2CCCCCC)cc1`, the EC50 was greater than 200 µM and the IC50 was 2.57 µM.

For `Cc1cc(C)c(C(=O)c2no[n+]([O-])c2C(=O)c2c(C)cc(C)c(Br)c2C)c(C)c1Br`, the EC50 was greater than 1.95 µM and the IC50 is greater than 1.95 µM.

Consider `COc1ccccc1NC(=O)C1=C(C)NC(C)=C(C(=O)Nc2ccccc2OC)C1c1ccc(C2C(C(=O)Nc3ccccc3OC)=C(C)NC(C)=C2C(=O)Nc2ccccc2OC)cc1`, for which the EC50 was greater than 1.62 µM and the IC50 is greater than 1.62 µM.

For the molecule `C1#CCCCCCCC#CCCCCC1.[C-]#[O+].[C-]#[O+].[C-]#[O+].[C-]#[O+].[C-]#[O+].[C-]#[O+].[C-]#[O+].[C-]#[O+].[C-]#[O+].[C-]#[O+].[C-]#[O+].[C-]#[O+].[Co].[Co].[Co].[Co]`, the EC50 was greater than 2.57 µM and the concentration for half-maximal inhibition (IC50) is greater than 2.57 µM.

As to `c1ccc2c(c1)c1c(n2CCOCCCN2CCCCC2)CCCC1`, the EC50 is greater than 200 µM and the IC50 is 5.37 µM.

For the molecule `Cc1ccc(NC(=O)CC2Sc3ccccc3NC2=O)c(C)c1` (stereo not drawn), the EC50 is greater than 79.4 µM and the IC50 came to 38.9 µM.

`CN1C(=O)CNS1(=O)=O`: the result was inactive.

With `Cc1ccc(NC(=O)CCCC(=O)CC(=O)c2ccc(Br)cc2)cc1`, the EC50 is greater than 309 µM and the IC50 was greater than 309 µM.

The values are drawn from PubChem BioAssay AID179 (DTP/NCI, 2004).
